Laboratory results: ChEMBL document CHEMBL1147239, “New antioxidant C-glucosylxanthones from the stems of Arrabidaea samydoides” (J Nat Prod, 2003)

test system: Radical scavenging activity; experiment: Antioxidant activity assessed as DPPH radical scavenging activity after 30 mins; type: functional

Row | IC50 [µM] | Compound
1 | 30.7 | O=C(O[C@@H]1[C@@H](O)[C@H](O)[C@@H](CO)O[C@H]1c1c(O)cc2oc3cc(O)c(O)cc3c(=O)c2c1O)c1ccc(O)cc1 [MURAXANTHONE]
2 | 31.4 | O=C(/C=C/c1ccccc1)O[C@@H]1[C@@H](O)[C@H](O)[C@@H](CO)O[C@H]1c1c(O)cc2oc3cc(O)c(O)cc3c(=O)c2c1O
3 | 25.4 | O=C(/C=C/c1ccc(O)cc1)O[C@@H]1[C@@H](O)[C@H](O)[C@@H](CO)O[C@H]1c1c(O)cc2oc3cc(O)c(O)cc3c(=O)c2c1O
4 | 12.3 | C[C@@H]1O[C@@H](OC[C@H]2O[C@@H](Oc3c(-c4ccc(O)c(O)c4)oc4cc(O)cc(O)c4c3=O)[C@H](O)[C@@H](O)[C@@H]2O)[C@H](O)[C@H](O)[C@H]1O [RUTIN]
5 | 35 | O=c1c2cc(O)c(O)cc2oc2cc(O)c([C@@H]3O[C@H](CO)[C@@H](O)[C@H](O)[C@H]3O)c(O)c12 [MANGIFERIN]
6 | 32.7 | O=C(O[C@@H]1[C@@H](O)[C@H](O)[C@@H](CO)O[C@H]1c1c(O)cc2oc3cc(O)c(O)cc3c(=O)c2c1O)c1ccccc1
7 | 17.8 | O=C(/C=C/c1ccc(O)c(O)c1)O[C@@H]1[C@@H](O)[C@H](O)[C@@H](CO)O[C@H]1c1c(O)cc2oc3cc(O)c(O)cc3c(=O)c2c1O
